Data on three compounds can be found in ChEMBL document CHEMBL1127909, “Tyrosinase inhibitory flavonoids fromheterotheca inuloides and their structural functions” (Bioorg Med Chem Lett, 1994).

Test [1] deals with Tyrosinase (Agaricus bisporus). Nature of the test: Dose required for inhibitory activity against oxidation of L-DOPA by mushroom tyrosinase.
For test [2], the target named is T1, Tyrosinase (Homo sapiens) (UniProt P14679).
T1 sequence (whole entry): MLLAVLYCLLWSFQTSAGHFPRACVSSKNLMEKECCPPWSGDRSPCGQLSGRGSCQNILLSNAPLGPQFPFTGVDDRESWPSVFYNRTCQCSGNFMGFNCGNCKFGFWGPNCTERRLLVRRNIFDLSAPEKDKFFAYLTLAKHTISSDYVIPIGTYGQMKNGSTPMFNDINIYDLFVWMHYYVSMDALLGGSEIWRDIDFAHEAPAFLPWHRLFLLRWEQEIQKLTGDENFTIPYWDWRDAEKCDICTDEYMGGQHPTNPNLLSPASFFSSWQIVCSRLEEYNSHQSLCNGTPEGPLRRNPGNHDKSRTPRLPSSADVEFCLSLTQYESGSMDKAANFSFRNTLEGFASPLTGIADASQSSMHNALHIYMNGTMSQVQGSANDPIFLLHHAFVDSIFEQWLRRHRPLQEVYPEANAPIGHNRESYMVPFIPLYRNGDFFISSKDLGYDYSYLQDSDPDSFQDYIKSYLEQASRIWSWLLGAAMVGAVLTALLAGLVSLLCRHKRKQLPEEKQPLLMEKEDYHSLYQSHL
In words: Percent inhibition of mushroom tyrosinase at concentration of 45 ug/ml.

Test [3] addresses T1, Tyrosinase (Homo sapiens). In words: Percent inhibition of mushroom tyrosinase at concentration of 18 ug/ml.

≈ marks a conversion by molar mass, not a printed value.

Compound `COc1cc(-c2oc3cc(O[C@H]4O[C@@H](COC(=O)/C=C/c5ccc(O)cc5)[C@H](O)[C@@H](O)[C@@H]4O)cc(O)c3c(=O)c2O)ccc1O` showed an ID50 in test [1] of 0.44 µg/mL (≈ 0.705 µM).
For the compound `O=C(/C=C/c1ccc(O)cc1)OC[C@@H]1O[C@H](Oc2cc(O)c3c(=O)c(O)c(-c4ccc(O)cc4)oc3c2)[C@@H](O)[C@H](O)[C@H]1O`, the ID50 in test [1] amounted to 0.39 µg/mL (≈ 0.656 µM).
A word on the inhibition: it is the share of the control response that was lost under treatment. With `O=c1c(O)c(-c2ccc(O)c(O)c2)oc2cc(O)cc(O)c12`, the inhibition in test [2] stood at 80%; in test [3] it was 40%.
